# Assay results reported in ChEMBL document CHEMBL1143598, “1-Methyl-3H-pyrazolo[1,2-a]benzo[1,2,3,4]tetrazin-3-ones. Design, synthesis, and biological activity of new antitumor agents” (2005).
# What was measured:
# [1] = Concentration required to inhibit total cell growth of human tumor cell lines (54 cells giving positive results out of 55 cells); Range = 5.72-4.10; format: functional; conditions: read-out: pTGI50 (converted)
# [2] = Concentration required to inhibit cell growth of human tumor cell lines (55 cells giving positive results out of 55 cells); Range = 6.28-4.59; format: functional
# [3] = Concentration required to inhibit cell death of human tumor cell lines (50 cells giving positive results out of 55 cells); Range = 5.27-4.1; format: functional; conditions: read-out: pLC50 (the source's name) (converted)
# [4] = Concentration required to inhibit cell growth of human tumor cell lines (53 cells giving positive results out of 55 cells); Range is 5.68-4.53; format: functional
# [5] = Concentration required to inhibit cell death of human tumor cell lines (40 cells giving positive results out of 55 cells); Range = 4.26-4.06; format: functional; conditions: read-out: pLC50 (the source's name) (converted)
# [6] = Concentration required to inhibit total cell growth of human tumor cell lines (50 cells giving positive results out of 55 cells); Range = 5.23-4.07; format: functional; conditions: read-out: pTGI50 (converted)
# [7] = Concentration required to inhibit cell death of human tumor cell lines (48 cells giving positive results out of 55 cells); Range = 5.19-4.05; conditions: read-out: pLC50 (the source's name) (converted)
# [8] = Concentration required to inhibit total cell growth of human tumor cell lines (50 cells giving positive results out of 55 cells); Range = 5.45-4.00; format: functional; conditions: read-out: pTGI50 (converted)
# [9] = Concentration required to inhibit cell growth of human tumor cell lines (54 cells giving positive results out of 55 cells); Range = 5.75-4.50; format: functional
# [10] = Concentration required to inhibit cell death of human tumor cell lines (46 cells giving positive results out of 54 cells); Range = 5.36-4.01; format: functional; conditions: read-out: pLC50 (the source's name) (converted)
# [11] = Concentration required to inhibit cell growth of human tumor cell lines (54 cells giving positive results out of 54 cells); Range = 6.76-4.46; format: functional
# [12] = Concentration required to inhibit total cell growth of human tumor cell lines (51 cells giving positive results out of 54 cells); Range = 6.14-4.29; format: functional; conditions: read-out: pTGI50 (converted)
# [13] = Concentration required to inhibit cell growth of human tumor cell lines (53 cells giving positive results out of 54 cells); Range = 6.05-4.50; format: functional
# [14] = Concentration required to inhibit cell death of human tumor cell lines (45 cells giving positive results out of 54 cells); Range = 5.25-4.05; format: functional; conditions: read-out: pLC50 (the source's name) (converted)
# [15] = Concentration required to inhibit total cell growth of human tumor cell lines (52 cells giving positive results out of 54 cells); Range = 5.53-4.02; format: functional; conditions: read-out: pTGI50 (converted)
# [16] = Concentration required to inhibit total cell growth of human tumor cell lines (52 cells giving positive results out of 53 cells; Range = 5.53-4.07; format: functional; conditions: read-out: pTGI50 (converted)
# [17] = Concentration required to inhibit cell death of human tumor cell lines (49 cells giving positive results out of 53 cells); Range = 5.25-4.11; format: functional; conditions: read-out: pLC50 (the source's name) (converted)
# [18] = Concentration required to inhibit cell growth of human tumor cell lines (53 cells giving positive results out of 53 cells); Range = 5.85-4.50; format: functional
# [19] = Concentration required to inhibit cell growth of human tumor cell lines (51 cells giving positive results out of 53 cells); Range = 5.75-4.67; format: functional
# [20] = Concentration required to inhibit total cell growth of human tumor cell lines (52 cells giving positive results out of 53 cell lines); Range = 5.47-4.34; format: functional; conditions: read-out: pTGI50 (converted)
# [21] = Concentration required to inhibit cell death of human tumor cell lines (50 cells giving positive results out of 53 cells); Range = 5.21-4.01; format: functional; conditions: read-out: pLC50 (the source's name) (converted)
compound,measurement,setting,value
Cc1cc(=O)n2nnc3cc(Cl)ccc3n12,GI50,[1],1910 nM
same,GI50,[2],525 nM
same,CC50,[3],5370 nM
Cc1cc(=O)n2nnc3ccccc3n12,GI50,[4],2090 nM
same,CC50,[5],55000 nM
same,GI50,[6],5890 nM
COc1ccc2c(c1)nnn1c(=O)cc(C)n21,CC50,[7],6460 nM
same,GI50,[8],3550 nM
same,GI50,[9],1780 nM
Cc1ccc2nnn3c(=O)cc(C)n3c2c1,CC50,[10],4370 nM
same,GI50,[11],174 nM
same,GI50,[12],724 nM
Cc1cc(=O)n2nnc3ccc(Cl)cc3n12,GI50,[13],891 nM
same,CC50,[14],5620 nM
same,GI50,[15],2950 nM
Cc1ccc2c(c1)nnn1c(=O)cc(C)n21,GI50,[16],2950 nM
same,CC50,[17],5620 nM
same,GI50,[18],1410 nM
Cc1cc(=O)n2nnc3cc(F)ccc3n12,GI50,[19],1780 nM
same,GI50,[20],3390 nM
same,CC50,[21],6170 nM
